Assay results taken from PubChem BioAssay AID743300 (The Scripps Research Institute Molecular Screening Center, 2014).

Molecular target: methionyl-tRNA synthetase (Trypanosoma brucei brucei)
Test: inhibition of trypanosomal methionyl-tRNA synthetase – biochemical, luminescence, dose response, round 2, late-stage follow-up (AID 743300)
Details: T. brucei MetRS enzyme, luminescence read-out

IC50: 99.5 nM
Compound: CCN(CC)C(=O)C(=O)c1cn(CC(=O)Nc2cccc(C(F)(F)F)c2)c2ccccc12
